In experiment [1] the test system is human foreskin fibroblast cells (HFF cells). The experiment is described as follows: Repeated stimulation of collagen I production. In kind it is cell-based. The following applies: for total collagen I, stimulated twice versus once within a seven day culture period: day 0-2 plus day 2-7 versus day 0-7; for collagen I production after a second stimulation relative to the first stimulation: restimulated after 48 hours, further 5 days. The method, then: Experiments were performed to ensure human fibroblast cells could be stimulated to increase ECM protein production by proteins having peroxidase activity after more than one application of the proteins having peroxidase activity. The capacity to respond repeatedly to the proteins having peroxidase activity provides important utility for the generation of ECM in vitro, particularly given that spent culture media needs to be replaced on a regular basis to maintain the viability of the cells. These experiments were performed using human foreskin fibroblast cells (HFF cells) seeded into 96 well plates at a density of 1.2×10^4 cells/well and cultured for one week in 10% fetal bovine serum/Dulbecco's minimum essential media (10% FBS/DMEM) at 37° C. and 5% CO2 (as described in Example 3). The confluent cells were then starved overnight in serum free DMEM and triplicate wells treated for six hours with MP, ARP and LP as representative proteins having peroxidase activity or the control agents transforming growth factor β2 (TGFβ2; R&D Systems) and 10% FBS (JRH BioSciences). After 48 hours, the conditioned media was collected for measurement of collagen I (as a representative ECM protein) and the cells either restimulated for six hours with fresh solutions containing proteins having peroxidase activity or control agents or the media was replaced with fresh serum free DMEM. The cells were cultured for a further 5 days after which the media was collected a second time for the measurement of collagen I. Media was also collected from replicate wells treated at the start of the experiment and left for 7 days (total culture period) for comparison.

The subject of experiment [2] is fibroblast cells isolated from an adult subject. In words: Total protein incorporated into the extracellular matrix (silver stained gel). The settings on record: 10% FBS + 50 ug/ml ascorbic acid, 72 hours. The format is cell-based, human. On the procedure: To ensure the soluble ECM proteins stimulated by the proteins with peroxidase activity are incorporated into the extracellular matrix generated by human fibroblast cells, given that this is a key requirement for the regeneration of collagen-rich tissues like skin and other organs and tissues, total proteins were extracted from the cell matrix. In these experiments, six well culture plates were seeded with fibroblast cells isolated from an adult subject at a density of 1.5×10^5 cells/well and after one week of culture, cells were treated with proteins with peroxidase activity in media containing 10% FBS and with the addition of ascorbic acid (vitamin C) which is a well known cofactor important for the cross linking of collagen molecules to generate polymeric fibres. Wells were supplemented daily to provide a final concentration of 50 ug/ml ascorbic acid in the media. After 72 hours the cell media was removed, the wells washed with warm PBS and the cell matrix extracted.
The total protein content of the cell matrix was solubilised by the addition of 500 ul/well of RIPA buffer (25 mM Tris-HCl pH7.4; 150 mM NaCl; 1% Triton X-100; 0.5% Na deoxycholate; 0.05% SDS). The cell matrix was scraped off the bottom of each well and the plates placed on a shaking platform for 10 minutes. The extracts were transferred to eppendorf tubes, vortexed vigorously and centrifuged at 12,000 rpm, 4° C. for 5 minutes. The DNA pellet was visualised and gently removed and the samples stored at −80° C. until assessment.
Total cell extracts were assessed by polyacrylamide gel electrophoresis. Samples were prepared by adding an appropriate amount of reduced loading buffer to neat cell extracts and boiling for 5 minutes. Samples were then loaded onto a 4-12% BisTris gradient gel (Invitrogen) together with molecular weight markers (Magic Mark XP and SeeBlue prestained markers; Invitrogen) and resolved for […] at 150V in a Novex mini-cell system (Invitrogen) using NuPage MES SDS running buffer. […]

For another experiment, the system named is human skin. In words: Collagen I and III immunohistochemistry in ex vivo human skin (Franz cell). The following applies: intradermal injection 100 μl, 72 hours. The method, then:
To confirm proteins with peroxidise activity can stimulate ECM production in human skin, studies were performed on ex vivo skin collected from tissue reduction surgery. The studies were undertaken using a modification of the OECD Test Guideline 428 (2004) Skin Absorption: in vitro method. Freshly excised human skin was collected in a
Hanks balanced salt solution (HBSS) and after being thoroughly washed in sterile, colour free DMEM/F12 media (Dulbecco's Modified Eagle Medium/Hams F12, Invitrogen) to remove surface debris, the subcutaneous fat layer was removed. Circles of full-thickness skin 15 mm in diameter were cut and placed epidermis side up on vertical glass diffusion cells of a Franz cell diffusion system (Crown Glass Co, NJ, USA). The skin was secured between two clamped ground glass joints and allowed to equilibrate and hydrate for approximately 30 minutes with the receptor chambers of the diffusion cells containing colour-free DMEM/F12+1% (v/v) of an antibiotic mix (200 mM L-glutamine, 10,000 units penicillin, 10 mg streptomycin per ml; Sigma, USA). The temperature of the jacketed diffusion cells was maintained at 34° C.±1° C. and the contents were constantly stirred using a mini magnetic stirrer. Proteins with peroxidase activity or a control were injected intradermally into the skin discs in a volume of 100 μl using a 27 gauge needle. After 72 hours the skin discs were removed and bisected with one half fixed in 4% buffered formalin for histological assessment and the other half snap frozen in liquid nitrogen for immunohistochemical detection of collagen I and III protein within the dermis. Frozen skin pieces were processed into cryoblocks, cut onto slides and fixed in acetone/methanol. All slides were blocked with 2% (w/v) bovine serum albumin (BSA) in HBSS and then incubated with either anti-human collagen type I or III primary antibodies (Chemical Credential, ICN or DakoCytomation respectively). The secondary antibody was biotinylated Multi-Link (DakoCytomation) with detection by streptavidin-biotinylated alkaline phosphatase (DakoCytomation). Visualisation was achieved by incubating each section with Naphthol AS/MX phosphate/fast red substrate containing 5 mM levamisole (Sigma). After washing, slides were counter stained with Mayer's Haematoxylin and assessed for collagen expression.

For the molecule Arthromyces ramosus peroxidase [ARP], in experiment [1], the “total collagen I, stimulated twice versus once within a seven day culture period” value is recorded as “markedly greater total collagen I levels” and the “collagen I production after a second stimulation relative to the first stimulation” value is given as “produced a greater response when stimulated a second time”.
As for soy bean peroxidase [SBP], the “proteinaceous material in the extracellular matrix versus untreated control cells” value in experiment [2] is recorded as “produced much more proteinaceous material”.
For the molecule microperoxidase [MP], the “proteinaceous material in the extracellular matrix versus untreated control cells” value in experiment [2] is recorded as “produced much more proteinaceous material”. In experiment [1], the “total collagen I, stimulated twice versus once within a seven day culture period” value was “responded in a similar way to cells treated with TGFβ2” and the “collagen I production after a second stimulation relative to the first stimulation” value is on record as “at least equivalent to that obtained with the first stimulation”. Moreover, in the experiment on human skin, the “collagen III immuno-reactivity” value was “increased collagen III staining” and the “staining intensity for collagen I” value is recorded as “increased staining intensity for collagen I”.
In the same order, the values of lactoperoxidase [LP] are “produced much more proteinaceous material”, “markedly greater total collagen I levels”, “at least equivalent to that obtained with the first stimulation”, “did not appear to affect collagen III immuno-reactivity” and “increased staining intensity for collagen I”.

B1: horse radish peroxidase (protein, UniProt P00433 31-338, looked up)
Peroxidase C1A: QLTPTFYDNSCPNVSNIVRDTIVNELRSDPRIAASILRLHFHDCFVNGCDASILLDNTTSFRTEKDAFGNANSARGFPVIDRMKAAVESACPRTVSCADLLTIAAQQSVTLAGGPSWRVPLGRRDSLQAFLDLANANLPAPFFTLPQLKDSFRNVGLNRSSDLVALSGGHTFGKNQCRFIMDRLYNFSNTGLPDPTLNTTYLQTLRGLCPLNGNLSALVDFDLRTPTIFDNKYYVNLEEQKGLIQSDQELFSSPNATDTIPLVRSFANSTQTFFNAFVEAMDRMGNITPLTGTQGQIRLNCRVVNSNS
As for B1, in the experiment on human skin, the “collagen III immuno-reactivity” value is given as “increased collagen III staining” and the “staining intensity for collagen I” value was “increased staining intensity for collagen I”.

These data come from US20100239556A1, “PROMOTING ECM PRODUCTION BY FIBROBLAST CELLS AND/OR PROMOTING MIGRATION OF FIBROBLAST CELLS IN A BIOLOGICAL SYSTEM” (TGR BioScience Pty Ltd., priority 2006, published 2010).
